The subject of experiment [1] is transfected CHO cells. Put plainly: Survival/selection/growth of transfected CHO cells in MPP+. As to conditions: reserpine concentration not stated. The format is cell-based, Chinese hamster. As for the experimental part: Using the above methods, the PC12 cDNA library constructed in the plasmid expression vector CDM8 was transfected into CHO cells. Using the selectable marker RSV- neo (Walker, Weizmann Institute, Israel), […] independent stable transformants were obtained after selection in the neomycin analogue G418 at 400 μg/ml effective dose. These cells were then selected at 40% confluence in 1 mM MPP^+. […] However, at four weeks, a colony of cells without refractile inclusions appeared and rapidly covered the plate. The apparently normal growth of these cells in the presence of 1 mM MPP^+ stands in marked contrast to all of the resistant clones obtained without transfection, which grew very slowly if at all. […] However, at 1 mM MPP^+, the resistant cells did show some toxicity, particularly when the assay was performed at higher cell density.
To identify the cDNA sequences responsible for conferring resistance to MPP^+, integrated plasmids were rescued from the primary CHO transformant obtained as described above in Example 1. […] The primary MPP^+ -resistant CHO transformant was amplified in culture and following cell lysis in 5M guanidinium isothiocyanate, the high molecular weight DNA prepared by repeated precipitation in isopropanol. After digestion with Not I, which cleaves the CDM8 vector once downstream of the cDNA insertion site as well as at rare eight-nucleotide recognition sites elsewhere in the genome, the DNA was religated and transformed into E. coli by electroporation as described by Stern-Bach et al., J. Biol. Chem. 265:3961-3966 (1990). Four pools of the derived plasmids containing approximately 50 colonies each were transfected into CHO cells and after two days were selected in 1 mM MPP^+. Four weeks later, one pool gave rise to several MPP^+ -resistant colonies, two pools gave rise to 1-2 colonies and the fourth pool and CDM8 vector gave rise to no healthy, resistant colonies. Restriction enzyme analysis of the plasmids in the pool conferring the highest frequency of resistance to MPP^+ indicated three independent clones of 1.0, 1.3 and 2.5 kb. […]

Experiment [2] deals with PC12 cells. Put plainly: cells. The following applies: Rattus norvegicus, PC-12, 1 h, read-out: [^3 H]-Dopamine Uptake (PC12).
Procedure: The effects of various pharmacologic agents were tested to determine whether the properties of the protein encoded by the mpp^res cDNA corresponded with those expected for the chromaffin granule amine transport protein. […] The cells were pre-incubated in Krebs-Ringer buffer containing 1 μM pargyline and the dose of the drug indicated for 15 minutes. […] Values were determined from three separate wells and the mean was expressed as percent of control uptake±standard deviation.
Experiment [3] addresses T1, chromaffin granule amine transport protein (Rattus norvegicus, UniProt Q01818).
T1 sequence (Q01818 1-521): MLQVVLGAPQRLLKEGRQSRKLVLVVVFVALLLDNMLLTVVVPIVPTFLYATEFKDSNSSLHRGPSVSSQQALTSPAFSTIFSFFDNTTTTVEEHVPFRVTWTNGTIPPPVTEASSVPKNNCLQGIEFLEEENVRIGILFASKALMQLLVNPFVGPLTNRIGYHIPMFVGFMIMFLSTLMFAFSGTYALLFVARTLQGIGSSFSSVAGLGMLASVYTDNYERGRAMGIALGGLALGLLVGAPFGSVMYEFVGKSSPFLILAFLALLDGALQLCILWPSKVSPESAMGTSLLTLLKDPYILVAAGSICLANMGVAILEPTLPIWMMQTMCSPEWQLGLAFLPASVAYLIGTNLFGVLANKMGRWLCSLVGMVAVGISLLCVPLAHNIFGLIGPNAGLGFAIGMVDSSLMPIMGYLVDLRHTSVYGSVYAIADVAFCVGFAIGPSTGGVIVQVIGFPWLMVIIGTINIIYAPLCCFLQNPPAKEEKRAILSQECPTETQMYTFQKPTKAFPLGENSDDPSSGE
Put plainly: cell-based. The format is cell-based. The method, then:
Uptake and cellular compartmentalization of loaded dopamine were performed by growing cells on poly-lysine-coated glass coverslips. […] The cells were then washed three times in 0.1M sodium phosphate, pH 7.4, and incubated at 4° C. in 2% glyoxylic acid/0.5 mg% MgCl2, pH 4.9-5.0 for three minutes as described by de la Torre, J. Neurosci. Meth. 3:1-5 (1980). Briefly, excess solution is wiped off the bottom and edges of the slide using absorbent paper, taking care not to touch the section. The coverslips were then drained thoroughly, dried in air at 45° C. heated to 80° C. for five minutes, inverted over mineral oil on glass slides and examined under fluorescence using the appropriate filters as described by Knigge et al., Brain Res. 120:393-405 (1977). Briefly, the preparations were infiltrated with warm immersion oil and examined in a Leitz MPV2 microspectrofluorometer equipped with Schoffel excitation and emission grating monochromators, photomultipliers, and ratio computing circuitry. Cells were scanned with either monochromatic light (370 nm) or narrow band excitation (S405, BG3) light for the purpose of identifying fluorescence within cells. Ploem illumination was used in combination with a X 63 or X 100 oil immersion objective.
Dopamine-loaded fluorescence was carried out as described in Example 1. […] Glyoxylic-acid-induced fluorescence was used to determine the intracellular distribution as described above in Example 1. The procedures were the same as described in Example 1 however a pure cDNA clone encoding the vesicle membrane transport protein, selected in the presence of MPP^+, obtained as described herein, was used rather than the primary transformant. […]
The effects of various pharmacologic agents were tested to determine whether the properties of the protein encoded by the mpp^res cDNA corresponded with those expected for the chromaffin granule amine transport protein. […] The cells were pre-incubated in Krebs-Ringer buffer containing 1 μM pargyline and the dose of the drug indicated for 15 minutes. 25 nM [^3 H]-dopamine was then added in the same buffer and after incubation at 37° C. for one hour, the cells were washed in cold Krebs-Ringer buffer, lysed and counted in Ecolite (ICN) as described by Greene and Rein, Brain Res. 129:247-263 (1978). Values were determined from three separate wells and the mean was expressed as percent of control uptake±standard deviation. […] The dose required to inhibit maximal uptake by 50%, Ki, was estimated from the fluorescence data using a range of concentrations for each agent.

Each structure is given as a SMILES string. Entries after “also recorded” stand apart in the source; their conditions may differ.

Usually Ki stands for the dissociation constant of the complex between target and ligand, obtained from inhibition or displacement. For the compound `COC(=O)[C@H]1[C@H]2C[C@@H]3c4[nH]c5cc(OC)ccc5c4CCN3C[C@H]2C[C@@H](OC(=O)c2cc(OC)c(OC)c(OC)c2)[C@@H]1OC` [reserpine], the “reversal of MPP+ resistance of transformants” value in experiment [1] is reported as “reversal of MPP^+ resistance; also recorded: reversible; also recorded: reversed”. Moreover, the activity at 1 µM in experiment [2] came to 23 ± 2%. Also, the “inhibition of vesicular dopamine uptake in the fluorescence assay” value in experiment [3] (50 nM) is “inhibit vesicular dopamine uptake completely”. Besides, the “perinuclear and particulate cytoplasmic dopamine staining of MPP+-resistant CHO cells” value in experiment [3] (1 μM) is reported as “inhibited”. Besides, the “Dopamine Fluorescence (mpp^res CHO)” value in experiment [3] (agent 1 μM, untreated control ++++, 12 hour dopamine loading) is given as 0. The Ki in experiment [3] (dose required to inhibit maximal uptake by 50%, estimated from fluorescence data, read-out: Ki (est)) was 25 nM. Besides, the “pattern of catecholamine accumulation in the MPP+-resistant transfectant” value in experiment [3] (reserpine concentration not stated) is “reversion to the wild-type pattern of catecholamine accumulation; also recorded: reversed”.

The values are drawn from US5688936A, “Vesicle membrane transport proteins” (priority 1993, dated 1997).
